Results from patent US10195156B2, “Compounds and compositions for intracellular delivery of agents” (ModernaTX, Inc., priority 2015, dated 2019).

Columns and labels:
[1] = Particle size and polydispersity index of nanoparticle compositions (Zetasizer Nano ZS); type: physicochemical
Summary of the method: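 Nanoparticle compositions are diluted in 1×PBS, then size and polydispersity index are read on a Zetasizer Nano ZS instrument.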

[2] = Encapsulation efficiency of RNA (QUANT-IT RIBOGREEN RNA assay); type: physicochemical
Summary of the method: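 Nanoparticle samples diluted to ~5 μg/mL RNA in TE buffer (pH 7.5), incubated with or without 2% Triton X-100 solution at 37 °C for 15 min, then RiboGreen added. Fluorescence read at ~480/520 nm, blank-subtracted; free RNA % = intact over Triton-disrupted signal.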

[3] = system: Luc expression; assay: Luc expression in CD-1 mice (AUC relative to MC3); type: in vivo; settings: Table 7c
Protocol: FIG. 15 is a graph summarizing luciferase expression levels at 6 h after administration of nanoparticle compositions containing compounds of the disclosure to CD-1 mice at a dose of 0.5 mpk. Total light flux values were acquired via body luminescent imaging (BLI) 6 h after administration. In this Figure, the numbers 1-7 and 10 refer to the compositions containing Compounds 4-10 and MC3 respectively.
(§1) In contrast, hEPO expression in rats induced by administration of a nanoparticle composition including a compound according to one of formulae (I), (Ia1)-(Ia6), (Ib), (II), (IIa), (III), and (IIIa) was substantially […] than that measured for MC3. […] Table 7c and 7d show additional protein expressions and clearance data from compositions with various compounds disclosed herein as compared to with MC3.

[4] = Lipid clearance: % dose remaining in mouse liver 6 h and 24 h after administration of nanoparticle compositions; type: in vivo, CD-1 mice; settings: Table 7c
From the text: as §1

[5] = pKa of nanoparticle compositions; type: physicochemical; settings: Table 20-1
[6] = system: luciferase (Luc) mRNA expression; assay: Expression of Luc induced by sample formulations, whole-body bioluminescence after intravenous administration; type: in vivo; settings: mice, i.v., 0.5 mg/kg; for Total Flux 3 hours / Total Flux 6 hours / Total Flux 24 hours: Table 20-2
Summary of the method: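 Mice (n=6) dosed intravenously with Luc mRNA nanoparticle formulations at 0.5 mg/kg. Whole-body bioluminescence measured at 3, 6 and 24 h. Standard MC3 formulation and PBS control run alongside.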

[7] = system: modified luciferase expression; assay: Expression of Luc in different organs (liver, lung, spleen, femur) 6 hours after intravenous administration; type: in vivo; settings: Table 20-3, mice, i.v., 0.5 mpk
Protocol: The efficacy of the nanoparticle compositions presented in Tables 1, 1a, 17-1, 19-1, 20-1 and 21-1 was further evaluated by measuring the expression of modified luciferase in the liver, lung, spleen, and femur upon administration of a given composition. Formulations were administered intravenously to mice (n=3) at a dosage of 0.5 mpk and bioluminescence measured after 6 hours. The standard MC3 formulation and a PBS control were also tested.

[8] = system: IL-6; assay: Cytokine production induced by sample formulations: IL-6; type: in vivo; settings: mice, i.v., 0.5 mpk, 6 hours; for IL-6: Table 20-4, formula (20-I), in pg/mL (unit assumed)
Summary of the method: (§2)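 Mice received nanoparticle formulations intravenously at 0.5 mpk, with standard MC3 formulation and PBS as controls. Cytokine concentrations were measured 6 hours after dosing.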

[9] = system: IP-10; assay: Cytokine production induced by sample formulations: IP-10; type: in vivo; settings: mice, i.v., 0.5 mpk, 6 hours; for IP-10: Table 20-4, formula (20-I), in pg/mL (unit assumed)
Summary of the method: as §2

[10] = system: modified luciferase (Luc) expression; assay: Expression upon intramuscular administration of Luc mRNA and H10 mRNA formulations; type: in vivo; settings: 6 hours after intramuscular administration
Protocol: Sample formulations including both modified luciferase (Luc) mRNA and H10 mRNA were prepared and administered intramuscularly at day 1 and day 21 and the resulting expression and immunogenicity were evaluated simultaneously. Formulations including compounds according to formula (20-I) were prepared and administered at doses of 0.001 and 0.01 mpk (e.g., doses of 0.0005 mpk of a formulation including Luc mRNA and a formulation including H10 mRNA or doses of 0.005 mpk of a formulation including Luc mRNA and a formulation including H10 mRNA). As shown in Table 20-4, the total flux was higher upon administration of the second dose for each composition and at each dose level. Total flux was higher for the higher dose level.

[11] = Table 20-1, * formulated with DOPE
[12] = Table 20-1, rows without footnote mark

PDI ([1]; Table 1b) | Size (nm) ([1]; Table 1b) | EE (%) ([2]; Table 1b) | % Dose Remaining 6 hr [4] | % Dose Remaining 24 hr [4] | SMILES | AUC (p/s*h) [3] | other results
0.23 | 93.0 nm | 96.9% | 5.18% | 4.77% | CCCCCCCCCN(CCCCCCCCC)CCN(CCCCCCCCC)CC(=O)N1CCN(C(=O)CN(CCCCCCCCC)CCCCCC(=O)OCCC)CC1 [Compound 54, Propyl 6-((2-(4-(N-(2-(dinonylamino)ethyl)-N-nonylglycyl)piperazin-1-yl)-2-oxoethyl)(nonyl)amino)hexanoate] | 1.89E+10 p/s*h | –
– | – | – | – | – | CCCCCCCCCCCCN(CCCCCCCCCCCC)CCN(CCCCCCCCCCCC)CC(=O)O [Compound 20-1, N-(2-(Didodecylamino)ethyl)-N-dodecylglycine] | – | PDI [1, 11]: 0.078; Size (nm) [1, 11]: 87.8 nm; EE (%) [2, 11]: 90.7%; pKa ([5]; * formulated with DOPE): 4.48; Total Flux 3 hours ([6]; 3 hours): 1.44E+06; Total Flux 6 hours [6]: 8.30E+05; Total Flux 24 hours [6]: 4.53E+05; total flux after 24 hours, rank within the named table (in words) [6]: lowest; Total Flux Liver [7]: 3.19E+05; Total Flux Lung [7]: 3.79E+04; Total Flux Spleen [7]: 1.70E+05; IL-6 [8]: 62.4; IP-10 [9]: 2065.8; Total flux (p/s) 0.001 mpk Dose 1 [10]: 3.50E+05 p/s; Total flux (p/s) 0.001 mpk Dose 2 [10]: 1.99E+06 p/s; Total flux (p/s) 0.01 mpk Dose 1 [10]: 3.16E+06 p/s; Total flux (p/s) 0.01 mpk Dose 2 [10]: 1.04E+07 p/s
0.23 | 86.8 nm | 99.1% | 1.31% | 0.13% | CCCCCCCCCN(CCCOC(=O)CCCCC)CCC1CCN(C(=O)CN(CCCCCCCCC)CCN(CCCCCCCCC)CCCCCCCCC)CC1 [Compound 61, 3-((2-(1-(N-(2-(Dinonylamino)ethyl)-N-nonylglycyl)piperidin-4-yl)ethyl)(nonyl)amino)propyl hexanoate] | 4.65E+11 p/s*h | –
0.22 | 102.5 nm | 92.7% | 7.06% | 6.40% | CCCCCCCCCN(CCCCCCCCC)CCN(CCCCCCCCC)CC(=O)N1CCN(C(=O)CN(CCCC(=O)OCCCCC)CCCC(=O)OCCCCC)CC1 [Compound 72, Dipentyl 4,4′-((2-(4-(N-(2-(dinonylamino)ethyl)-N-nonylglycyl)piperazin-1-yl)-2-oxoethyl)azanediyl)dibutyrate] | 6.53E+10 p/s*h | –
0.18 | 99.9 nm | 91.0% | 12.39% | 9.25% | CCCCCCCCCN(CCCC(=O)OCCCCC)CCN(CCCCCCCCC)CC(=O)N1CCN(C(=O)CN(CCCCCCCCC)CCCC(=O)OCCCCC)CC1 [Compound 71, Pentyl 4-(nonyl(2-(4-(N-nonyl-N-(2-(nonyl(4-oxo-4-(pentyloxy)butyl)amino)ethyl)glycyl)piperazin-1-yl)-2-oxoethyl)amino)butanoate] | 1.77E+11 p/s*h | –
0.23 | 105.7 nm | 98.8% | 21.18% | 15.98% | CCCCCCCCCN(CCCCC(=O)OCCCC)CCC1CCN(C(=O)CN(CCCCCCCCC)CCN(CCCCCCCCC)CCCCCCCCC)CC1 [Compound 60, Butyl 5-((2-(1-(N-(2-(dinonylamino)ethyl)-N-nonylglycyl)piperidin-4-yl)ethyl)(nonyl)amino)pentanoate] | 2.84E+11 p/s*h | –
0.23 | 103.0 nm | 82.8% | 1.35% | 0.77% | CCCCCCCCCN(CCCCCCCCC)CCN(CCCCCCCCC)CC(=O)N1CCN(C(=O)CN(CCCCCCCCC)CCCCCCC(=O)OCC)CC1 [Compound 53, Ethyl 7-((2-(4-(N-(2-(dinonylamino)ethyl)-N-nonylglycyl)piperazin-1-yl)-2-oxoethyl)(nonyl)amino)heptanoate] | 9.22E+09 p/s*h | –
0.24 | 117.4 nm | 99.0% | 1.21% | 0.16% | CCCCCCCCCN(CCCCCCCCC)CCN(CCCCCCCCC)CC(=O)N1CCN(C(=O)CN(CCCCCCCCC)CCCOC(=O)CCCCC)CC1 [Compound 56, 3-((2-(4-(N-(2-(Dinonylamino)ethyl)-N-nonylglycyl)piperazin-1-yl)-2-oxoethyl)(nonyl)amino)propyl Hexanoate] | 1.77E+11 p/s*h | –
0.23 | 112.8 nm | 98.9% | 1.37% | 0.61% | CCCCCCCCCN(CCCCCCC(=O)OCC)CCC1CCN(C(=O)CN(CCCCCCCCC)CCN(CCCCCCCCC)CCCCCCCCC)CC1 [Compound 58, Ethyl 7-((2-(1-(N-(2-(dinonylamino)ethyl)-N-nonylglycyl)piperidin-4-yl)ethyl)(nonyl)amino)heptanoate] | 1.38E+11 p/s*h | –
– | – | – | – | – | CCCCCCCCCN(CCCCCCCCC)CCN(CCO)CCCCCC(=O)OCCCCC [Compound 20-6, Pentyl 6-((2-(dinonylamino)ethyl)(2-hydroxyethyl)amino)hexanoate] | – | PDI [1, 12]: 0.220; Size (nm) [1, 12]: 82.5 nm; EE (%) [2, 12]: 94.7%; pKa ([5]; rows without footnote mark): 6.73; Total Flux 3 hours ([6]; 3 hours): 3.39E+10; Total Flux 6 hours [6]: 5.44E+06; Total Flux 24 hours [6]: 5.48E+05; total flux after 3 hours, rank within the named table (in words) ([6]; 3 hours): highest after 3 hours; total flux after 24 hours, rank within the named table (in words) [6]: lowest; Total Flux Liver [7]: 7.75E+05; Total Flux Lung [7]: 2.32E+04; Total Flux Spleen [7]: 2.35E+05; IL-6 [8]: 0; IL-6 induction, rank within the named table (in words) [8]: lowest; IP-10 [9]: 25.3; IP-10 induction, rank or comparison with IL-6 (in words) [9]: lowest; Total flux (p/s) 0.001 mpk Dose 1 [10]: 8.57E+05 p/s; Total flux (p/s) 0.001 mpk Dose 2 [10]: 9.79E+05 p/s; Total flux (p/s) 0.01 mpk Dose 1 [10]: 3.41E+06 p/s; Total flux (p/s) 0.01 mpk Dose 2 [10]: 6.04E+06 p/s
0.23 | 101.9 nm | 98.8% | 0.88% | 0.24% | CCCCCCCCCN(CCCCCCCC(=O)OC)CCC1CCN(C(=O)CN(CCCCCCCCC)CCN(CCCCCCCCC)CCCCCCCCC)CC1 [Compound 57, Methyl 8-((2-(1-(N-(2-(dinonylamino)ethyl)-N-nonylglycyl)piperidin-4-yl)ethyl)(nonyl)amino)octanoate] | 1.21E+11 p/s*h | –
– | – | – | – | – | CCCCCCCCCCCCN(CCO)CCN(CCCCCC(=O)OCCCCC)CCCCCC(=O)OCCCCC [Compound 20-4, Dipentyl 6,6′-((2-(dodecyl(2-hydroxyethyl)amino)ethyl)azanediyl)dihexanoate] | – | PDI [1, 12]: 0.160; Size (nm) [1, 12]: 82.1 nm; EE (%) [2, 12]: 91.3%; pKa ([5]; rows without footnote mark): 6.86; Total Flux 3 hours ([6]; 3 hours): 3.01E+06; Total Flux 6 hours [6]: 1.75E+06; Total Flux 24 hours [6]: 6.82E+08; Total Flux Femur ([7]; femur): 2.09E+04; Total Flux Liver [7]: 2.93E+05; Total Flux Lung [7]: 1.11E+04; Total Flux Spleen [7]: 4.51E+04; IL-6 [8]: 169.3; IP-10 [9]: 270.5; Total flux (p/s) 0.001 mpk Dose 1 [10]: 1.04E+06 p/s; Total flux (p/s) 0.01 mpk Dose 1 [10]: 9.46E+06 p/s
